# Results from PubChem BioAssay (NCI).
# Several values for one entry are separate records, joined by “and”; a condition that tells them apart may be missing. Identical values can stand only once.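 Tested at 5 concentrations; 48 h exposure; 96-well plates; endpoints linearly interpolated, else capped at highest concentration. GI50 is the concentration that inhibits growth by half. TGI: total growth inhibition.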
# Columns and labels:
# Experiment in all cases: inhibition of tumour cell growth, NCI panel, 48 h
# OVCAR-3 ovarian = tested on: OVCAR-3 ovarian
# SNB-19 CNS = tested on: SNB-19 CNS
# SK-MEL-28 melanoma = tested on: SK-MEL-28 melanoma
# K-562 leukemia = tested on: K-562 leukemia
# COLO 205 colon = tested on: COLO 205 colon
# SK-MEL-5 melanoma = tested on: SK-MEL-5 melanoma
# OVCAR-5 ovarian = tested on: OVCAR-5 ovarian
# ACHN renal = tested on: ACHN renal
# OVCAR-4 ovarian = tested on: OVCAR-4 ovarian
# OVCAR-8 ovarian = tested on: OVCAR-8 ovarian
SMILES,GI50 (OVCAR-3 ovarian),TGI (OVCAR-3 ovarian),GI50 (SNB-19 CNS),TGI (SNB-19 CNS),GI50 (SK-MEL-28 melanoma),TGI (SK-MEL-28 melanoma),GI50 (K-562 leukemia),TGI (K-562 leukemia),GI50 (COLO 205 colon),TGI (COLO 205 colon),GI50 (SK-MEL-5 melanoma),TGI (SK-MEL-5 melanoma),GI50 (OVCAR-5 ovarian),TGI (OVCAR-5 ovarian),GI50 (ACHN renal),TGI (ACHN renal),TGI (OVCAR-4 ovarian),TGI (OVCAR-8 ovarian),GI50 (OVCAR-4 ovarian),GI50 (OVCAR-8 ovarian)
COC(=O)NC1C(C)OC(OC2C/C=C(/C)C3C=CC4C(OC5CC(OC6CC(O)C(OC7CC(O)C(OC)C(C)O7)C(C)O6)C(O)C(C)O5)C(C)CC(C)C4C3(C)/C(O)=C3\C(=O)OC4(CC(C)C(CO)=CC4/C=C\2C)C3=O)CC1(C)[N+](=O)[O-] (stereo not drawn),9.64 µM,21 µM and 19.4 µM,15.9 µM,50 µM and 52.4 µM,9 µM,16.6 µM and 36 µM,3.64 µM,14.7 µM and 71.8 µM,9.29 µM,16.3 µM and 13 µM,10.9 µM,18.7 µM and 33.2 µM,13.4 µM,30.7 µM and 33.7 µM,14.8 µM,35.5 µM and 30.6 µM,11.8 µM,20.7 µM and 32.3 µM,–,–
CC1=NN(c2ccccc2)C(=O)C1N=Nc1ccc([As](=O)(O)O)c(O)c1 (stereo not drawn),–,> 100 µM,–,> 100 µM,–,> 100 µM,–,> 100 µM,–,> 100 µM,–,> 100 µM,–,> 100 µM,–,> 100 µM,> 100 µM,> 100 µM,–,–
Cc1cc(N2CCCCC2)nc(N(CCCNc2ccnc3cc(Cl)ccc23)Cc2ccco2)n1,2.02 µM,5.01 µM,2.93 µM,13.5 µM,1.62 µM,3.28 µM,1.38 µM,5.37 µM,1.67 µM,3.53 µM,1.67 µM,3.06 µM,3 µM,15 µM,3.3 µM,12 µM,14.3 µM,5.18 µM,2.69 µM,2.24 µM
Cc1cc(NS(=O)(=O)c2ccc(N=Nc3cc(N=Nc4ccc(S(=O)(=O)Nc5cc(C)nc(C)n5)cc4)c4c(NC(=O)C(Cl)Cl)cccc4c3OC(=O)C(Cl)Cl)cc2)nc(C)n1 (tested in a mixture with another compound),–,33 µM,–,33.6 µM,–,52.2 µM,–,> 100 µM,–,74.9 µM,–,10.5 µM,–,30.6 µM,–,56.7 µM,43.7 µM,> 100 µM,–,–
CCOC(=O)/C(=C\c1ccc(O)c(OC)c1)C(=O)c1ccccc1,–,54.3 µM,–,> 45.8 µM,–,27.7 µM,–,> 31.8 µM,–,> 69.1 µM,–,29.8 µM,–,> 59.3 µM,–,36 µM,> 40.3 µM,18.3 µM,–,–
O=S(=O)(O)O.[NH-]C1CCCCC1[NH-].[Pt+2] (stereo not drawn),> 100 µM,> 100 µM,> 100 µM,> 100 µM,> 100 µM,> 100 µM,37 µM,> 100 µM,> 100 µM,> 100 µM,42.3 µM,> 100 µM,> 100 µM,> 100 µM,47.8 µM,> 100 µM,> 100 µM,> 100 µM,67.2 µM,80.1 µM
Oc1ccc(-c2nnc3sc(-c4ccc(F)c(Oc5ccccc5)c4)nn23)cc1,28.8 µM,76.4 µM,34.6 µM,> 100 µM,> 100 µM,> 100 µM,> 100 µM,> 100 µM,96 µM,> 100 µM,18.6 µM,> 100 µM,> 100 µM,> 100 µM,22.7 µM,78.3 µM,> 100 µM,> 100 µM,> 100 µM,28.3 µM
COc1cc(C(=O)c2ccc3c(c2)OCO3)cc(OC)c1OC,1.4 µM,3.93 µM,5.07 µM,> 100 µM,3.69 µM,> 100 µM,0.482 µM,> 100 µM,1.37 µM,6.2 µM,1.88 µM,> 21.5 µM,8.96 µM,> 100 µM,8.37 µM,> 100 µM,> 100 µM,> 100 µM,5.14 µM,5.55 µM
CC(=O)N1N=C2/C(=C/c3ccccc3)CC(C)CC2C1c1ccccc1 (stereo not drawn),14.9 µM,32.6 µM,14.5 µM,30.1 µM,18.5 µM,36.5 µM,4.29 µM,20.7 µM,16.5 µM,45.6 µM,11.6 µM,25.4 µM,17.7 µM,32.2 µM,13 µM,26.8 µM,25.2 µM,50.6 µM,10.8 µM,16.1 µM
Cc1ccc(NC(=O)CCC(CC(=O)C(C)(C)C)=NNC(=O)C(=O)NN)cc1C,–,> 100 µM,–,> 100 µM,–,> 100 µM,–,> 100 µM,–,> 100 µM,–,> 100 µM,–,> 100 µM,–,> 100 µM,> 100 µM,> 100 µM,–,–
O=c1c2cccc(Cl)c2sc2c(NCCCNCCO)nc3ccccc3c12,2.28 µM,6.19 µM,5.8 µM,20 µM,1.85 µM,3.54 µM,1.81 µM,4.03 µM,1.9 µM,4.39 µM,6.5 µM,21 µM,2.8 µM,10.1 µM,1.44 µM,2.8 µM,19.6 µM,11.9 µM,5.43 µM,2.91 µM
Cc1ccc(NC(=O)C(=O)C2C(=O)N(c3ccccc3)N=C2N)cc1C (stereo not drawn),–,> 100 µM,–,> 100 µM,–,> 100 µM,–,> 100 µM,–,> 100 µM,–,> 100 µM,–,> 100 µM,–,> 100 µM,> 100 µM,> 100 µM,–,–
COC(=O)C1=C(O)c2cc(OC)c(OC)c(OC)c2[C@H](c2cc(OC)c(OC)c(OC)c2)C1C(=O)OC (stereo partly drawn),–,58.4 µM,–,> 100 µM,–,> 100 µM,–,86.1 µM,–,37.9 µM,–,> 100 µM,–,> 100 µM,–,> 100 µM,> 100 µM,> 100 µM,–,–
